Data from patent publication US20170173186A9, “MURINE WOUND MODEL FOR TESTING PATHOGEN VIRUENCE AND THERAPEUTIC EFFICACY” (priority 2013, published 2017).
≈ marks a conversion by molar mass, not a printed value.

Experiments:
A. baumannii AB5075 [1] = assay: Murine dorsal wound infection model (neutropenic BALB/c mice), wound area measurement and gross pathology; assay type: in vivo, Acinetobacter baumannii
A. baumannii AB5075 [2] = assay: Murine dorsal wound infection model, CFU burden in wound tissue (4 mm biopsy punch); assay type: in vivo, Acinetobacter baumannii
A. baumannii AB5075 [3] = assay: Murine dorsal wound infection model, percent weight change; assay type: in vivo, Acinetobacter baumannii; conditions: for median loss of infection-day body weight: Day 1 post-infection; for maximal median loss of infection-day body weight: maximal loss over days 1 through 6 post-infection; for duration of significantly less weight loss than placebo: post-infection, Kruskal-Wallis test followed by Dunn's post-test
Experimental: All procedures were performed in accordance with protocol IB02-10 that was approved by the Walter Reed Army Institute of Research (WRAIR)/Navy Medical Research Center (NMRC) Institutional Animal Care and Use Committee (Silver Spring, Md.). Mice received 150 mg/kg and 100 mg/kg cyclophosphamide intraperitoneal (IP) injections, before wounding and infection, on days −4 and −1, respectively (22, 24). On Day 0, the day of wounding and inoculum, mice were anesthetized with ketamine 130 mg/kg (KETASET®, Fort Dodge Animal Health, Fort Dodge, Iowa), xylazine 10 mg/kg (ANASED®, Lloyd Inc. Shenandoah, Iowa), and buprenorphine 0.05 mg/kg (Hospira Inc., Lake Forest, Ill.) injections. Hair was clipped from the cervical to mid-lumbar dorsum, and the skin scrubbed with iodine solution followed by an ethanol rinse. A 6.0 mm disposable skin biopsy punch (VisiPunch, Huot Instruments, LLC, Menomonee Falls, Wis.) was used to create a full-thickness skin defect overlying thoracic spinal column and the adjacent musculature. Twenty-five μL containing 5.0×10^4 AB5075 cells in a PBS suspension were pipetted into the wound, and allowed to absorb for three minutes. A circular cutout (30 mm diameter) of transparent dressing (TEGADERM™Roll, 3M Health Care, St. Paul, Minn.) was placed over the wound and secured with tissue adhesive (VETBOND™, 3M Animal Care, St. Paul, Minn.). […] However, the size of the wound was increased to 6 mm in order to facilitate subsequent punch biopsies to measure bacterial burden in the wound tissue.
(§1) Beginning four hours post-inoculation, mice were treated with either rifampin at 25 mg/kg IP injection once daily, doxycycline 25 mg/kg IP injection twice daily, or an equivalent vehicle control over the course of a six day treatment period (25, 26). On Day 7 the transparent dressing was removed, treatment discontinued, and the wound monitored for closure through Day 25.
All statistical analyses were carried out using Graphpad Prism software. […] CFU burdens were compared via the Kruskal-Wallis test followed by Dunn's multiple comparison tests. All results were considered significant if p<0.05.

A. baumannii AB5075 [4] = assay: Murine dorsal wound infection model, SEM analysis of biofilm on occlusive dressings and wound tissue; assay type: in vivo, Acinetobacter baumannii
A. baumannii AB5075 [5] = conditions: cited from earlier work
A. baumannii AB5075 [6] = assay: Murine dorsal wound infection model, PNA-FISH examination of AB5075 localization in wound tissue; assay type: in vivo, Acinetobacter baumannii; conditions: Day 1
Experimental: All procedures were performed in accordance with protocol IB02-10 that was approved by the Walter Reed Army Institute of Research (WRAIR)/Navy Medical Research Center (NMRC) Institutional Animal Care and Use Committee (Silver Spring, Md.). Mice received 150 mg/kg and 100 mg/kg cyclophosphamide intraperitoneal (IP) injections, before wounding and infection, on days −4 and −1, respectively (22, 24). On Day 0, the day of wounding and inoculum, mice were anesthetized with ketamine 130 mg/kg (KETASET®, Fort Dodge Animal Health, Fort Dodge, Iowa), xylazine 10 mg/kg (ANASED®, Lloyd Inc. Shenandoah, Iowa), and buprenorphine 0.05 mg/kg (Hospira Inc., Lake Forest, Ill.) injections. […]
as §1
One mouse from each treatment group (placebo, rifampin, and doxycycline) and from representative time points (Days 1, 3, and 7) were sacrificed in order to characterize the dissemination of AB5075 within wound tissue via peptide nucleic acid fluorescence in situ hybridization (PNA-FISH) (33). […]

A. baumannii AB5075 [7] = assay: Murine dorsal wound infection model, time course histopathology of wounds (H&E); assay type: in vivo, Acinetobacter baumannii
[8] = Day 3 post-infection, BALB/c mice, IP treatment from 4 h post-inoculation (rifampin 25 mg/kg once daily, doxycycline 25 mg/kg twice daily)
[9] = Day 8 post-infection, one day after occlusive dressing removed, six day IP treatment
[10] = Day 15 post-infection, six day IP treatment
[11] = Day 21 post-infection, six day IP treatment

Question: For `C[C@H]1c2cccc(O)c2C(=O)C2=C(O)[C@]3(O)C(=O)C(C(N)=O)=C(O)[C@@H](N(C)C)[C@@H]3[C@@H](O)[C@@H]21` [doxycycline], which median wound size (A. baumannii AB5075 [1]; [8]) is on record?
Answer: Its median wound size is 31.0 mm^2.

Question: And the median wound size (A. baumannii AB5075 [1]; [9])?
Answer: Its median wound size is 29.0 mm^2.

Question: And the median wound size (A. baumannii AB5075 [1]; [10])?
Answer: Its median wound size is 2.0 mm^2.

Question: What about the median wound size (A. baumannii AB5075 [1]; [11]) of the same compound?
Answer: The median wound size was 0.0 mm^2.

Question: What about the “median CFU burden” value (A. baumannii AB5075 [2]; 3 days post-infection) of the same compound?
Answer: The value was 5.0×10^4 CFU per 4 mm tissue biopsy punch.

Question: And the “median CFU burden” value (A. baumannii AB5075 [2]; Day 7 post-infection)?
Answer: Its value is 6.2×10^5 CFU per 4 mm tissue biopsy punch.

Question: What about the “median CFU burden” value (A. baumannii AB5075 [2]; after 24 hours of infection) of the same compound?
Answer: Its value is 5.9×10^5 CFU per 4 mm tissue biopsy punch.

Question: And the “median loss of infection-day body weight” value (A. baumannii AB5075 [3])?
Answer: The value was 5.3%.

Question: What about the “maximal median loss of infection-day body weight” value (A. baumannii AB5075 [3]) of the same compound?
Answer: The value was 11.8%.

Question: And the “duration of significantly less weight loss than placebo” value (A. baumannii AB5075 [3])?
Answer: The value was 4 days.

Question: Which results are given for `CO[C@H]1/C=C/O[C@@]2(C)Oc3c(C)c(O)c4c(O)c(c(/C=N/N5CCN(C)CC5)c(O)c4c3C2=O)NC(=O)/C(C)=C\C=C\[C@H](C)[C@H](O)[C@@H](C)[C@@H](O)[C@@H](C)[C@H](OC(C)=O)[C@@H]1C` [rifampin]?
Answer: median wound size (A. baumannii AB5075 [1]; [8]): 35.0 mm^2; median wound size (A. baumannii AB5075 [1]; [9]): 34.5 mm^2; median wound size (A. baumannii AB5075 [1]; [10]): 5.5 mm^2; median wound size (A. baumannii AB5075 [1]; [11]): 0.0 mm^2; biofilm on occlusive dressing by SEM (A. baumannii AB5075 [4]; Day 3 (rifampin: Days 3 or 7) post-infection): no biofilm formation was observed on dressings; bacteria on occlusive dressing by SEM (A. baumannii AB5075 [4]; one day post-infection): no substantial amount of bacteria observed on the dressing; median CFU burden (A. baumannii AB5075 [2]; 3 days post-infection): 4.7×10^4 CFU per 4 mm tissue biopsy punch; median CFU burden (A. baumannii AB5075 [2]; Day 7 post-infection): 6.1×10^5 CFU per 4 mm tissue biopsy punch; median CFU burden (A. baumannii AB5075 [2]; after 24 hours of infection): 5.7×10^5 CFU per 4 mm tissue biopsy punch; reduction of median CFU burden versus placebo (A. baumannii AB5075 [2]; after 24 hours of infection): 1 log; MIC (A. baumannii AB5075 [5]): 4.0 µg/mL (≈ 4.86 µM); A. baumannii cells in wound bed by Acinetobacter-specific PNA probe (A. baumannii AB5075 [6]): clearance of A. baumannii cells below the level of detection at all levels of the wound bed; histopathology of wound (H&E) (A. baumannii AB5075 [7]; Day 15): re-epithelization over the wound was observed; histopathology of wound (H&E) (A. baumannii AB5075 [7]; Day 23): signs of contractile healing and re-epithelized wound beds; median loss of infection-day body weight (A. baumannii AB5075 [3]): 6.7%; maximal median loss of infection-day body weight (A. baumannii AB5075 [3]): 6.8%; duration of significantly less weight loss than placebo (A. baumannii AB5075 [3]): 5 days
